Test results published in ChEMBL document CHEMBL4837258, “Discovery of Novel UDP-N-Acetylglucosamine Acyltransferase (LpxA) Inhibitors with Activity against Pseudomonas aeruginosa” (J Med Chem, 2021).
Values after ≈ are worked out from the molar mass of the structure shown.

What was measured:
physchem = conditions: 1-octanol/phosphate buffer, pH 7.4
[1] = Aqueous solubility of compound incubated for 90 mins under shaking condition; assay type: physicochemical; conditions: buffer
[2] = Volume of distribution at steady state in CD1 mouse at 1 mg/kg, iv pretreated with ABT followed by compound treatment and measured upto 7 hrs by LC-MS/MS analysis; assay type: ADME, organism-based; conditions: in vivo, read-out: Vdss
[3] = AUCinfinity in CD1 mouse at 5 mg/kg, iv pretreated with ABT followed by compound treatment and measured upto 7 hrs by LC-MS/MS analysis; assay type: ADME, organism-based; parameters: route intravenous, dose 5 mg/kg, time <=7; conditions: in vivo
[4] = AUCinfinity in CD1 mouse at 1 mg/kg, iv pretreated with ABT followed by compound treatment and measured upto 7 hrs by LC-MS/MS analysis; assay type: ADME, organism-based; parameters: route intravenous, dose 1 mg/kg, time <=7; conditions: in vivo
[5] = Oral bioavailability in CD1 mouse at 30 mg/kg pretreated with ABT followed by compound treatment and measured upto 7 hrs by LC-MS/MS analysis; assay type: ADME, organism-based; conditions: in vivo
[6] = AUCinfinity in CD1 mouse at 3 mg/kg, po pretreated with ABT followed by compound treatment and measured upto 7 hrs by LC-MS/MS analysis; assay type: ADME, organism-based; parameters: route oral, dose 3 mg/kg, time <=7; conditions: in vivo
[7] = AUCinfinity in CD1 mouse at 30 mg/kg, po pretreated with ABT followed by compound treatment and measured upto 7 hrs by LC-MS/MS analysis; assay type: ADME, organism-based; parameters: route oral, dose 30 mg/kg, time <=7; conditions: in vivo
[8] = Oral bioavailability in CD1 mouse at 3 mg/kg pretreated with ABT followed by compound treatment and measured upto 7 hrs by LC-MS/MS analysis; assay type: ADME, organism-based; conditions: in vivo
[9] = Volume of distribution at steady state in CD1 mouse at 5 mg/kg, iv pretreated with ABT followed by compound treatment and measured upto 7 hrs by LC-MS/MS analysis; assay type: ADME, organism-based; conditions: in vivo, read-out: Vdss
[10] = Volume of distribution at steady state in CD1 mouse at 3 mg/kg, iv pretreated with ABT followed by compound treatment and measured upto 7 hrs by LC-MS/MS analysis; assay type: ADME, organism-based; conditions: in vivo, read-out: Vdss
[11] = Volume of distribution at steady state in CD1 mouse at 85 mg/kg, iv measured upto 7 hrs by LC-MS/MS analysis; assay type: ADME, organism-based; conditions: in vivo, read-out: Vdss
[12] = AUCinfinity in CD1 mouse at 5 mg/kg, po pretreated with ABT followed by compound treatment and measured upto 7 hrs by LC-MS/MS analysis; assay type: ADME, organism-based; parameters: route oral, dose 5 mg/kg, time <=7; conditions: in vivo
[13] = AUCinfinity in CD1 mouse at 85 mg/kg, iv measured upto 7 hrs by LC-MS/MS analysis; assay type: ADME, organism-based; parameters: route intravenous, dose 85 mg/kg, time <=7; conditions: in vivo
[14] = Volume of distribution at steady state in CD1 mouse at 3 mg/kg, iv measured upto 7 hrs by LC-MS/MS analysis; assay type: ADME, organism-based; conditions: in vivo, read-out: Vdss
[15] = AUCinfinity in CD1 mouse at 3 mg/kg, iv pretreated with ABT followed by compound treatment and measured upto 7 hrs by LC-MS/MS analysis; assay type: ADME, organism-based; parameters: route intravenous, dose 3 mg/kg, time <=7; conditions: in vivo
[16] = AUCinfinity in CD1 mouse at 3 mg/kg, iv measured upto 7 hrs by LC-MS/MS analysis; assay type: ADME, organism-based; parameters: route intravenous, dose 3 mg/kg, time <=7; conditions: in vivo
[17] = Oral bioavailability in CD1 mouse at 5 mg/kg measured upto 7 hrs by LC-MS/MS analysis; assay type: ADME, organism-based; conditions: in vivo

Compound | logD at 2 h, 25 µM (physchem) | solubility at […] [1] | further results
CCc1c(F)cc(F)cc1O[C@H](C)C(=O)N(Cc1nnc(N)o1)Cc1ccc(C#N)cc1F | 3 |  | 
Nc1nnc(CN(Cc2ccc(S(N)(=O)=O)cc2F)C(=O)CSc2cc(F)cc(F)c2Cl)o1 | 1.8 | 330 µg/mL (≈ 632 µM) | 
N#Cc1ccc(CN(Cc2nnc(N)o2)C(=O)CSc2ccccc2Cl)cn1 | 1.4 | 340 µg/mL (≈ 820 µM) | 
N#Cc1cc(F)c(CN(Cc2nnc(N)o2)C(=O)CSc2cc(F)cc(F)c2Cl)c(F)c1 | 2.4 | 60 µg/mL (≈ 123 µM) | 
[2H]C([2H])(Oc1cc(F)cc(F)c1C([2H])([2H])C([2H])([2H])[2H])C(=O)N(Cc1nnc(N)o1)Cc1ccc(S(N)(=O)=O)cc1F | 2 | 460 µg/mL (≈ 908 µM) | Vd [10]: 0.31 L/kg; Vd [11]: 10.3 L/kg; AUC(0-inf) [12]: 7690 ng·h/mL; AUC(0-inf) [13]: 24000 ng·h/mL; Vd [14]: 0.34 L/kg; AUC(0-inf) [15]: 35300 ng·h/mL; AUC(0-inf) [16]: 62100 ng·h/mL; bioavailability [17]: 7.4%
N#Cc1ccc(CN(Cc2nnc(N)o2)C(=O)CSc2cc(F)cc(F)c2Cl)c(F)c1 | 2.6 |  | 
N#Cc1ccc(CN(Cc2nnc(N)o2)C(=O)CSc2ccccc2CC(F)(F)F)c(F)c1 | 2.3 | 90 µg/mL (≈ 188 µM) | 
CCc1c(F)cc(F)cc1OCC(=O)N(Cc1nnc(N)o1)Cc1ccc(S(N)(=O)=O)cc1F | 2.1 |  | 
N#Cc1ccc(CN(Cc2nnc(N)o2)C(=O)CCc2ccccc2)cn1 | 1.5 |  | 
N#Cc1ccc(CN(Cc2nnc(N)o2)C(=O)CSc2ccccc2Cl)cc1 | 2 | 120 µg/mL (≈ 290 µM) | 
[2H]C([2H])(Oc1cc(F)cc(F)c1C([2H])([2H])C([2H])([2H])[2H])C(=O)N(Cc1nnc(N)o1)Cc1ccc(C#N)cc1F | 3 |  | 
N#Cc1ccc(CN(Cc2nnc(N)o2)C(=O)CSc2ncccc2Cl)cn1 | 1.1 |  | 
N#Cc1ccc(CN(Cc2nnc(N)o2)C(=O)CSc2ccccc2OC(F)(F)F)c(F)c1 | 1.6 | 90 µg/mL (≈ 187 µM) | 
CCc1ccccc1SCC(=O)N(Cc1ccc(C#N)cc1)Cc1nnc(N)o1 | 2.5 |  | 

Further lines, with some results ahead:

logD at 2 h, 25 µM (physchem) | solubility at […] [1] | Compound | further results
1 | 850 µg/mL (≈ 2130 µM) | N#Cc1ccc(CN(Cc2nnc(N)o2)C(=O)COc2ccccc2Cl)cn1 | 
1.4 |  | N#Cc1ccc(CN(Cc2nnc(N)o2)C(=O)COc2cc(F)cc(F)c2Cl)cn1 | 
2.8 |  | CCc1c(F)cc(F)cc1OCC(=O)N(Cc1ccc(C#N)cc1)Cc1nnc(N)o1 | Vd [2]: 3.97 L/kg; AUC(0-inf) [3]: 1040 ng·h/mL; AUC(0-inf) [4]: 218 ng·h/mL; bioavailability [5]: 138%; AUC(0-inf) [6]: 323 ng·h/mL; AUC(0-inf) [7]: 9180 ng·h/mL; bioavailability [8]: 48.6%; Vd [9]: 3.3 L/kg
2.1 |  | [2H]C([2H])(Oc1cc(F)cc(F)c1C([2H])([2H])C([2H])([2H])[2H])C(=O)N(Cc1ccc(C#N)nc1)Cc1nnc(N)o1 | 
2.2 |  | N#Cc1ccc(CN(Cc2nnc(N)o2)C(=O)COc2cc(F)cc(F)c2C2CC2)cn1 | 
2.7 |  | CCc1c(F)cc(F)cc1OCC(=O)N(Cc1nnc(N)o1)Cc1ccc(C#N)cc1F | 
2.1 |  | Nc1nnc(CN(Cc2ccc(S(N)(=O)=O)cc2F)C(=O)COc2cc(F)cc(F)c2C2CC2)o1 | 
2.2 | 150 µg/mL (≈ 348 µM) | Nc1nnc(CN(Cc2ccc(O)nc2)C(=O)COc2cc(F)cc(F)c2C2CC2)o1 | 
